Test results taken from patent US20070014845A1, “Liposomal delivery vehicle for hydrophobic drugs” (priority 2005, published 2007).
One block for each molecule: values may come before it.

Tests used:
[1] = cited from earlier work
[2] = Drug concentration of filtered drug/cyclodextrin hydration solutions (HPLC); format: physicochemical; conditions: for drug concentration of filtered cyclodextrin solution: 10 mM histidine, 15 mM NaCl, pH 6.8, incubated 45° C. for 2 hours; for final drug concentration assayed by HPLC: 50 w/v % hydroxypropyl-β-cyclodextrin
Experimental: A similar solution containing 30% cyclodextrin was prepared by dissolving 30 g of hydroxypropyl-β-cyclodextrin in a 100 mL of water. The solution also contained 10 mM histidine and 15 mM NaCl. The final osmolality was 451 mOsm/kg (Wescor Osmometer) and the pH was 6.8. Drug (RWJ-425457) was added to the cyclodextrin solution, incubated (45° C. for 2 hours), and filtered, to yield a drug concentration of 9.9 mg/mL.
A similar solution containing 20% cyclodextrin was prepared by dissolving 20 g of hydroxypropyl-β-cyclodextrin in a 100 mL of buffer (10 mM histidine and 15 mM NaCl). The final osmolality was 199 mOsm/kg (Wescor Osmometer) and the pH was 6.8. Drug (RWJ-425457) was added to the cyclodextrin solution, incubated (45° C. for 2 hours) and filtered, to yield a drug concentration of 4.8 mg/mL.
A liposome formulation with no cholesterol, formulation no. 11, was also prepared as follows. A lipid mixture of HSPC/mPEG-DSPE 95:5 mol/mol (11.3 g HSPC and 2.1 g mPEG-DSPE) was solubilized in 10 mL ethanol at about 65 ° C. A 50% hydroxypropyl-β-cyclodextrin solution was made by solubilizing 50 g of the cyclodextrin in a total volume of 100 mL water. The osmolality was 720 mOsm/kg and the pH was 7.4. In a separate container 1.004 g of drug (RWJ416457) was placed in 100 mL of the 50 w/v % cyclodextrin solution. The mixture was stirred for 1 hour at 45° C. and then 3 hours at room temperature followed by filtration to removw any un-dissolved drug in the solution. The final drug concentration assayed by HPLC was 7.58 mg/mL and the osmolality of the hydration medium was 771 mOsm/kg. The lipid solution was then mixed with 90 mL of the drug/cyclodextrin solution (pre-warmed to 65° C.) followed by stirring at 65° C. for 1 hour to form a suspension of liposomes, identified as formulation no. 11.
A 50% hydroxypropyl-β-cyclodextrin solution was made by solubilizing 50.0 g of the cyclodextrin in a total volume of 100 mL water. The final osmolality was 720 mOsm/kg (Wescor Osmometer) and the pH was 7.4. In a separate container 1.004 g of drug (RWJ416457) was placed in 100 mL of the 50 w/v % cyclodextrin solution. The mixture was stirred for 4 hours at room temperature followed by filtration to remove any drug in the external solution. The final drug concentration assayed by HPLC was 7.58 mg/mL and osmolality was 771 mOsm/kg.

[3] = Solubility of RWJ-416457 in hydroxypropyl-β-cyclodextrin and sulfobutylether-β-cyclodextrin solutions (HPLC); format: physicochemical
Experimental: Various liposomal formulations were prepared to perform supporting and illustrative studies. […] The solubility of the drug in the cyclodextrin solutions was determined.
The solubility of an antimicrobial oxazolidinone drug identified as RWJ-416457 in 40 w/v % hydroxylpropyl-β-cyclodextrin and in 20 w/v % sulfobutylether-β-cyclodextrin under various conditions of pH, temperature, and incubation time was determined as follows. About 15 mgs of drug was added to 5 mL of each cyclodextrin solution followed by incubation under one of three conditions: (1) with stirring at 45° C. for 2 hours; (2) with stirring at 45° C. for 2 hours followed by stirring at room temperature (25° C.) for 3 days; or (3) with stirring at room temperature (25° C.) for 3 days. After incubation, any non-solubilized drug crystals were removed either by centrifugation using a bench top centrifuge at 3000 rpm or by filtration using a hand-held syringe with a filter with 0.2 μm pore size. The drug concentration of the supernatant or the filtrate was then determined by high performance liquid chromatography (HPLC).

Molecule: 2-Hydroxypropyl-β-cyclodextrin
- Solubility in water [1]: >600000 µg/mL

Molecule: 2-Hydroxypropyl-γ-cyclodextrin
- Solubility in water [1]: >500000 µg/mL

- drug concentration of filtered cyclodextrin solution ([2]; 20% hydroxypropyl-β-cyclodextrin): 4800 µg/mL
- drug concentration of filtered cyclodextrin solution ([2]; 30% hydroxypropyl-β-cyclodextrin): 9900 µg/mL
- final drug concentration assayed by HPLC ([2]; stirred 1 hour at 45° C. then 3 hours at room temperature): 7.58 mg/mL
- final drug concentration assayed by HPLC ([2]; stirred 4 hours at room temperature): 7.58 mg/mL
- Solubility of RWJ-416457 ([3]; Sample 1, pH 8.54, HP-β-CD 40%, 3 days RT, Filter): 8130 µg/mL
- Solubility of RWJ-416457 ([3]; Sample 2, pH 8.54, HP-β-CD 40%, 45° C. 2 hrs + 3 days RT, Filter): 9460 µg/mL
- Solubility of RWJ-416457 ([3]; Sample 2, pH 8.54, HP-β-CD 40%, 45° C. 2 hrs, Centrifuge): 9370 µg/mL
- Solubility of RWJ-416457 ([3]; Sample 2, pH 8.54, HP-β-CD 40%, 45° C. 2 hrs, Filter): 9260 µg/mL
- Solubility of RWJ-416457 ([3]; Sample 3, pH 3.21, HP-β-CD 40%, 3 days RT, Filter): 7600 µg/mL
- Solubility of RWJ-416457 ([3]; Sample 4, pH 3.21, HP-β-CD 40%, 45° C. 2 hrs + 3 days RT, Filter): 9080 µg/mL
- Solubility of RWJ-416457 ([3]; Sample 4, pH 3.21, HP-β-CD 40%, 45° C. 2 hrs, Centrifuge): 9230 µg/mL
- Solubility of RWJ-416457 ([3]; Sample 4, pH 3.21, HP-β-CD 40%, 45° C. 2 hrs, Filter): 9160 µg/mL
- Solubility of RWJ-416457 ([3]; Sample 5, pH 4.58, HP-β-CD 40%, 3 days RT, Filter): 7210 µg/mL
- Solubility of RWJ-416457 ([3]; Sample 6, pH 4.58, HP-β-CD 40%, 45° C. 2 hrs + 3 days RT, Filter): 9100 µg/mL
- Solubility of RWJ-416457 ([3]; Sample 6, pH 4.58, HP-β-CD 40%, 45° C. 2 hrs, Centrifuge): 9170 µg/mL
- Solubility of RWJ-416457 ([3]; Sample 6, pH 4.58, HP-β-CD 40%, 45° C. 2 hrs, Filter): 9160 µg/mL
- Solubility of RWJ-416457 ([3]; Sample 7, pH 6.94, SBE-β-CD 20%, 45° C. 2 hrs + 3 days RT, Filter): 4450 µg/mL
- Solubility of RWJ-416457 ([3]; Sample 7, pH 6.94, SBE-β-CD 20%, 45° C. 2 hrs, Centrifuge): 4750 µg/mL
- Solubility of RWJ-416457 ([3]; Sample 7, pH 6.94, SBE-β-CD 20%, 45° C. 2 hrs, Filter): 4550 µg/mL
- drug solubility ([3]; in 20% sulfobutylether-β-cyclodextrin (summary of Example 1A)): above 4.5 mg/mL
- solubility ([3]; in 20 w/v % sulfobutylether-β-cyclodextrin at 45° C.): about 4.5 mg/mL
- drug solubility ([3]; in 40 w/v % hydroxypropyl-β-cyclodextrin (summary of Example 1A)): above 9 mg/mL
- solubility ([3]; in 40 w/v % hydroxypropyl-β-cyclodextrin at 45° C.): about 9.1 mg/mL
- solubility ([3]; in 40 w/v % hydroxypropyl-β-cyclodextrin at room temperature): about 7.6 mg/mL
Molecule: CC(=O)NC[C@H]1CN(c2ccc(N3Cc4cn(C)nc4C3)c(F)c2)C(=O)O1 [RWJ-416457]

Molecule: OC[C@H]1O[C@@H]2O[C@H]3[C@H](O)[C@@H](O)[C@@H](O[C@H]4[C@H](O)[C@@H](O)[C@@H](O[C@H]5[C@H](O)[C@@H](O)[C@@H](O[C@H]6[C@H](O)[C@@H](O)[C@@H](O[C@H]7[C@H](O)[C@@H](O)[C@@H](O[C@H]8[C@H](O)[C@@H](O)[C@@H](O[C@H]9[C@H](O)[C@@H](O)[C@@H](O[C@H]%10[C@H](O)[C@@H](O)[C@@H](O[C@H]1[C@H](O)[C@H]2O)O[C@@H]%10CO)O[C@@H]9CO)O[C@@H]8CO)O[C@@H]7CO)O[C@@H]6CO)O[C@@H]5CO)O[C@@H]4CO)O[C@@H]3CO [δ-cyclodextrin]
- water solubility (at 25° C., g/100 mL) ([1]; at 25° C.): 8.19 g/100 mL

Molecule: Randomly Methylated β-cyclodextrin
- Solubility in water [1]: >500000 µg/mL

Molecule: β-Cyclodextrin sulfobutyl ether sodium salt
- Solubility in water [1]: >500000 µg/mL
